The values that follow come from patent US20090118332A1, “Therapeutic Agents - 551” (AstraZeneca AB, priority 2006, published 2009).

For this test, the target named is T1, human Fatty Acid Synthase (Homo sapiens, UniProt P49327).
T1 construct: made in house
Description: Human FAS enzyme assay (decrease in NADPH fluorescence). The test is classed as biochemical. Particulars: for inhibition at 100 µM: % inhibition at a concentration of 100 μmolar; for IC50, inhibition of human Fatty Acid Synthase: FAS enzyme assay, IC50 from fitted sigmoid curves. An outline of the steps: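 In-house human FAS was preincubated with compound and NADPH for 15 min at room temperature in 0.1 M Tris pH 7.5 with EDTA, glutathione and BSA. Malonyl CoA and acetyl CoA (500 μM and 150 μM in the added mix) were then added for 60 min. IC50 came from time-zero-subtracted NADPH fluorescence (340/460 nm).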

T1 sequence (P49327 whole entry): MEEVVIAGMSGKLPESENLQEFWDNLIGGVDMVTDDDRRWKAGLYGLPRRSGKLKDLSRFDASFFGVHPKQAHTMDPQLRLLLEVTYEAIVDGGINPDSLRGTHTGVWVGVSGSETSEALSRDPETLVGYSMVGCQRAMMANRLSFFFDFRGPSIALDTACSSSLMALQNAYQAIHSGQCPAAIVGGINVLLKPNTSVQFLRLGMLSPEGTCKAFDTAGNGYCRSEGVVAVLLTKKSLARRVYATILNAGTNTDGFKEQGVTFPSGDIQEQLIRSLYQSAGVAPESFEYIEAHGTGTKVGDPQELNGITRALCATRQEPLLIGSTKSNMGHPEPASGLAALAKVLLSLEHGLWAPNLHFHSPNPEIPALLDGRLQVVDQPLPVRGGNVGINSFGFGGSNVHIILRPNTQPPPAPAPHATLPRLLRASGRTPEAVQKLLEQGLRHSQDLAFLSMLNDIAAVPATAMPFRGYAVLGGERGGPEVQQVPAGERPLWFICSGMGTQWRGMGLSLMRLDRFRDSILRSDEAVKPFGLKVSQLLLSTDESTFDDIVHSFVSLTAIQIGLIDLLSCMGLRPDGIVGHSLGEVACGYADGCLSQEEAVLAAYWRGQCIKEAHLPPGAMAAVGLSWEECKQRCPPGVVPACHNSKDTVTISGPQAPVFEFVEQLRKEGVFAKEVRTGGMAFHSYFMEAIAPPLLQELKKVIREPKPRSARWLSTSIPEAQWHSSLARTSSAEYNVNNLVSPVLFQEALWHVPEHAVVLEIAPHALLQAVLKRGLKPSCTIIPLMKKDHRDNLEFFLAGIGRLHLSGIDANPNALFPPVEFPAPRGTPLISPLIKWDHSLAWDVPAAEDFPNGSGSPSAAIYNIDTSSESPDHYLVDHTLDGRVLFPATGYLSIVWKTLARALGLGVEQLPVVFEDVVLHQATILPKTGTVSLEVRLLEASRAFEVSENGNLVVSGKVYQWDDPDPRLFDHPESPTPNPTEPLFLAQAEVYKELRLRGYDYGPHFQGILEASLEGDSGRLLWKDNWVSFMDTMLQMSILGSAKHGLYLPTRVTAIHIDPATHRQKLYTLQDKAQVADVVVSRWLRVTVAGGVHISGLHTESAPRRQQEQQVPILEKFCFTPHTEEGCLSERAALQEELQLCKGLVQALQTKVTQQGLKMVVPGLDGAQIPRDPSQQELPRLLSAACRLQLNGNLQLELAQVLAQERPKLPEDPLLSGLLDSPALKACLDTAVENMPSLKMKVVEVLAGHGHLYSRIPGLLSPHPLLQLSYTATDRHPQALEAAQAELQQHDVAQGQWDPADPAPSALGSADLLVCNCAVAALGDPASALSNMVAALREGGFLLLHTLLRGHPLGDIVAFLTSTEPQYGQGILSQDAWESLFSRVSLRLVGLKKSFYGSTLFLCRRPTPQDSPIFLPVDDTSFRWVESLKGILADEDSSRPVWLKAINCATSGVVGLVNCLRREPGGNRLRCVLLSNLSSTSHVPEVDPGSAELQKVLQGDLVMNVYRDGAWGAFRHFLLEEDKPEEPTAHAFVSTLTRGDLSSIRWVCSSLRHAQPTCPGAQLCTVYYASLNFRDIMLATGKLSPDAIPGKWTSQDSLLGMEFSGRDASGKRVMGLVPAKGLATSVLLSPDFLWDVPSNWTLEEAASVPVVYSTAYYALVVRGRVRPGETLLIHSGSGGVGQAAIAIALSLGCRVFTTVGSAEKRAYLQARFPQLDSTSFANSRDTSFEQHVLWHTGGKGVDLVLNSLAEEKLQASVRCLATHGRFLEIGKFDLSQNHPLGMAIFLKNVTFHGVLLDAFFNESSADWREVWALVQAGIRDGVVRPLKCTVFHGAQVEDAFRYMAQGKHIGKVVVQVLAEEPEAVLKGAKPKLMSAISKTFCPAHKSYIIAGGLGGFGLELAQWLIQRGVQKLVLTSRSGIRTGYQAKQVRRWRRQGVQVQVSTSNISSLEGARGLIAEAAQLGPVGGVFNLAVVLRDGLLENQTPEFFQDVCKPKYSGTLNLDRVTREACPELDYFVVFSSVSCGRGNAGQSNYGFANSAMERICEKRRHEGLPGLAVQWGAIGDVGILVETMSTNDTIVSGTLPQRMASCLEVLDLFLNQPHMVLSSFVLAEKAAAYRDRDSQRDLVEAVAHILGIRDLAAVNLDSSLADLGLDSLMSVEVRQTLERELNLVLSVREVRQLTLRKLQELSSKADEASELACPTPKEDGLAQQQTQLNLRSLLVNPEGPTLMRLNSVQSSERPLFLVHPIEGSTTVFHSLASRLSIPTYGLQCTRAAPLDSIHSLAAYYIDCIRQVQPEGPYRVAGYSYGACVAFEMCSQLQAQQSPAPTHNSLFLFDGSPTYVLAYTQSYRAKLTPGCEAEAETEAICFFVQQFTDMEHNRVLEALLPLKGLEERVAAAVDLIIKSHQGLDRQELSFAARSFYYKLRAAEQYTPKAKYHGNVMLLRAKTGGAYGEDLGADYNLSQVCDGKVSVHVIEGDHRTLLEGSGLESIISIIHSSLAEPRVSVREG

For orientation: inhibition means the relative decrease from the control value, in per cent. `Cc1ccc(C(=O)N2CCC(c3ccc(C(=O)N(C)C)cc3)CC2)cc1NC(=O)NC(C)C` [Example 124, N,N-dimethyl-4-[1-[4-methyl-3-(propan-2-ylcarbamoylamino)benzoyl]-4-piperidyl]benzamide]: the inhibition at 100 µM came out at 78%.

In the case of `Cc1ccc(C(=O)N2CCC(c3ccc(C#N)cc3)CC2)cc1NC(=O)NCCCn1cccn1` [Example 244, 1-[5-[4-(4-cyanophenyl)piperidine-1-carbonyl]-2-methyl-phenyl]-3-(3-pyrazol-1-ylpropyl)urea], the inhibition at 100 µM was 96.2%.

As to `CC(C)NC(=O)Nc1cc(C(=O)N2CCC(c3ccc(C#N)cc3)CC2)ccc1C#N` [Example 22, 3-[2-cyano-5-[4-(4-cyanophenyl)piperidine-1-carbonyl]phenyl]-1-propan-2-yl-urea], the inhibition at 100 µM is 86.8%.

In the case of `Cc1ccc(C(=O)N2CCC(c3cccc(F)c3)CC2)cc1NC(=O)NC(C)C` [1-[5-[4-(3-fluorophenyl)piperidine-1-carbonyl]-2-methylphenyl]-3-propan-2-ylurea], the “IC50, inhibition of human Fatty Acid Synthase” value (“IC50, inhibition” below) is recorded as “do not have IC50s in the range of about 0.001 μM to about 30 μM”.

Regarding `Cc1ccc(C(=O)N2CCC(c3ccc(C#N)cc3)CC2)cc1NC(=O)NC(C)(C)CNc1ccccc1` [Example 59, 3-(1-anilino-2-methyl-propan-2-yl)-1-[5-[4-(4-cyanophenyl)piperidine-1-carbonyl]-2-methyl-phenyl]urea], the inhibition at 100 µM was determined as 87.2%.

Consider `Cc1ccc(C(=O)N2CCC(c3ccc(C#N)cc3)CC2)cc1NC(=O)NCc1cnn(C)c1` [Example 356, 1-[5-[4-(4-cyanophenyl)piperidine-1-carbonyl]-2-methyl-phenyl]-3-[(1-methylpyrazol-4-yl)methyl]urea], for which the inhibition at 100 µM was 92.4%.

For `Cc1ccc(C(=O)N2CCC(c3ccc(C#N)cc3)CC2)cc1NC(N)=O` [Example 366, [5-[4-(4-cyanophenyl)piperidine-1-carbonyl]-2-methylphenyl]urea], the inhibition at 100 µM turned out to be 101%.

Consider `CCS(=O)(=O)N1CC(NC(=O)Nc2cc(C(=O)N3CCC(c4ccc(C#N)cc4)CC3)ccc2C)C1` [Example 311, 3-[5-[4-(4-cyanophenyl)piperidine-1-carbonyl]-2-methyl-phenyl]-1-(1-ethylsulfonylazetidin-3-yl)urea], for which the inhibition at 100 µM worked out at 105%.

Turning to `Cc1ccc(C(=O)N2CCC(c3ccc(C#N)cc3)CC2)cc1NC(=O)NCC(C)(C)N` [Example 203, 3-(2-amino-2-methyl-propyl)-1-[5-[4-(4-cyanophenyl)piperidine-1-carbonyl]-2-methyl-phenyl]urea], the inhibition at 100 µM came to 91%.

In the case of `Cc1ccc(C(=O)N2CCC(c3ccc(C#N)cc3)CC2)cc1NC(=O)NC1CCCC1C(=O)O` (stereo not drawn) [Example 388, 2-[[5-[4-(4-cyanophenyl)piperidine-1-carbonyl]-2-methylphenyl]carbamoylamino]-cyclopentane-1-carboxylic acid], the inhibition at 100 µM was found to be 83.9%.

Take `Cc1ccc(C(=O)N2CCC(O)(c3ccccc3)CC2)cc1NC(=O)NC(C)C` [1-[5-(4-hydroxy-4-phenylpiperidine-1-carbonyl)-2-methylphenyl]-3-propan-2-ylurea]: the “IC50, inhibition” value was “do not have IC50s in the range of about 0.001 μM to about 30 μM”.

`CCS(=O)(=O)N[C@H]1CC[C@H](NC(=O)Nc2cc(C(=O)N3CCC(c4ccc(C#N)cc4)CC3)ccc2C)C1` [Example 324, 3-[5-[4-(4-cyanophenyl)piperidine-1-carbonyl]-2-methyl-phenyl]-1-[(1S,3S)-3-(ethylsulfonylamino)cyclopentyl]urea]: the inhibition at 100 µM worked out at 97.1%.

Regarding `Cc1ccc(C(=O)N2CCC(c3ccc(C#N)cc3)CC2)cc1NC(=O)NCCCNC(=O)OC(C)(C)C` [Example 206, tert-butyl N-[3-[[5-[4-(4-cyanophenyl)piperidine-1-carbonyl]-2-methyl-phenyl]carbamoylamino]propyl]carbamate], the inhibition at 100 µM was 83.8%.

As to `CCCOCCNC(=O)Nc1cc(C(=O)N2CCC(c3ccc(C#N)cc3)CC2)ccc1C` [Example 164, 3-[5-[4-(4-cyanophenyl)piperidine-1-carbonyl]-2-methyl-phenyl]-1-(2-propoxyethyl)urea], the inhibition at 100 µM came to 95%.

With `Cc1ccc(C(=O)N2CCC(c3ccc(C#N)cc3)CC2)cc1NC(=O)NCC1COCCO1` (stereo not drawn) [Example 160, 1-[5-[4-(4-cyanophenyl)piperidine-1-carbonyl]-2-methyl-phenyl]-3-(1,4-dioxan-2-ylmethyl)urea], the inhibition at 100 µM was 94.9%.

As for `CNC(=O)Nc1ccc(C)c(C(=O)N2CCC(c3ccc(C#N)cc3)CC2)c1` [Example 18, 3-[3-[4-(4-cyanophenyl)piperidine-1-carbonyl]-4-methyl-phenyl]-1-methyl-urea], the inhibition at 100 µM was determined as 75.9%.

For the molecule `COC(=O)CCNC(=O)Nc1cc(C(=O)N2CCC(c3ccc(C#N)cc3)CC2)ccc1C` [Example 45, methyl 3-[[5-[4-(4-cyanophenyl)piperidine-1-carbonyl]-2-methyl-phenyl]carbamoylamino]propanoate], the inhibition at 100 µM is 91.8%.

With `COc1ccccc1CCNC(=O)Nc1cc(C(=O)N2CCC(c3ccc(C#N)cc3)CC2)ccc1C` [Example 61, 1-[5-[4-(4-cyanophenyl)piperidine-1-carbonyl]-2-methyl-phenyl]-3-[2-(2-methoxyphenyl)ethyl]urea], the inhibition at 100 µM is 84.8%.

As to `Cc1ccc(C(=O)N2CCC(c3ccc(C#N)cc3)CC2)cc1NC(=O)N[C@H]1CCN(C(=O)OC(C)(C)C)C1` [Example 210, tert-butyl (3S)-3-[[5-[4-(4-cyanophenyl)piperidine-1-carbonyl]-2-methyl-phenyl]carbamoylamino]pyrrolidine-1-carboxylate], the inhibition at 100 µM came to 97.4%.

With `Cc1ccc(C(=O)N2CCC(c3ccc(C#N)cc3)CC2)cc1NC(=O)N(C)CC1CCCO1` (stereo not drawn) [3-[5-[4-(4-cyanophenyl)piperidine-1-carbonyl]-2-methylphenyl]-1-methyl-1-(oxolan-2-ylmethyl)urea], the “IC50, inhibition” value was “do not have IC50s in the range of about 0.001 μM to about 30 μM”.

As for `CSc1ccc(C(=O)N2CCC(c3ccc(C#N)cc3)CC2)cc1NC(=O)NC(C)C` [Example 362, 3-[5-[4-(4-cyanophenyl)piperidine-1-carbonyl]-2-methylsulfanylphenyl]-1-propan-2-ylurea], the inhibition at 100 µM was 87.9%.

For `Cc1ccc(C(=O)N2CCC(c3ccc(C#N)cc3)CC2)cc1NC(=O)NCC(C)(C)NC(=O)C(C)(C)C` [Example 205, N-[1-[[5-[4-(4-cyanophenyl)piperidine-1-carbonyl]-2-methyl-phenyl]carbamoylamino]-2-methyl-propan-2-yl]-2,2-dimethyl-propanamide], the inhibition at 100 µM came to 88.2%.

Consider `CC(=O)N[C@H]1CC[C@H](NC(=O)Nc2cc(C(=O)N3CCC(c4ccc(C#N)cc4)CC3)ccc2C)C1` [Example 321, N-[(1S,3S)-3-[[5-[4-(4-cyanophenyl)piperidine-1-carbonyl]-2-methyl-phenyl]carbamoylamino]cyclopentyl]acetamide], for which the inhibition at 100 µM is 96.7%.

Turning to `Cc1ccc(C(=O)N2CCC(c3ccc(C#N)cc3)CC2)cc1NC(=O)NCc1cccnc1` [Example 35, 1-[5-[4-(4-cyanophenyl)piperidine-1-carbonyl]-2-methyl-phenyl]-3-(pyridin-3-ylmethyl)urea], the inhibition at 100 µM was 91.6%.
